Experimental data: US20080274892A1, “Novel Haloalkylsulfonanilide Derivative, Herbicide, and Method of Use Thereof” (priority 2005, published 2008)

Experiments:
barnyard glass = assay: Test Example 2: herbicidal efficacy on rice paddy weeds post-emergence; format: in vivo, Echinochloa crus-galli; settings: 21 days after treatment
Description: (§1) The standard of judgment for herbicidal efficacy (degree of growth inhibition) and phytotoxicity 4 . . . 90%-100% of herbicidal efficacy or phytotoxicity 3 . . . 70%-89% of herbicidal efficacy or phytotoxicity 2 . . . 40%-69% of herbicidal efficacy or phytotoxicity 1 . . . 1%-39% of herbicidal efficacy or phytotoxicity 0 . . . 0% of herbicidal efficacy or phytotoxicity
(§2) A 75 cm^2 plastic pot was filled with soil (clay loam) and planted seeds of barnyard glass and bulrush which is a rice paddy weed. After covering the top with 75 cm^3 soil mixed with seeds of false pimpernel, the pot was filled with water so that the soil submerged under 5 cm depth of water and kept in a hot house. […] The pot was kept in a hot house for 21 days after the treatment and the herbicidal efficacy was investigated and evaluated according to the standard in Test Example 1 by comparing with the untreated control. “-” in the table represents test not done.

[1] = test system: paddy rice plant (cultivar: Nihonbare); assay: Test Example 3: phytotoxicity test for transplanted paddy rice plant; format: in vivo; settings: 21 days after treatment; for Phytotoxicity to paddy rice: transplanted rice
Protocol: as §1
A 75 cm^2 plastic pot was filled with soil (clay loam), and water was added so that the soil was submerged under 5 cm depth of water. Two paddy rice plant (cultivar: Nihonbare) at two leaves stage were transplanted at the depth of 1 cm and kept in a hot house. […] The pot was kept in a hot house for 21 days after the treatment and the phytotoxicity was investigated and evaluated according to the standard in Test Example 1 by comparing with the untreated control. “-” in the table represents test not done.

bulrush [2] = assay: Test Example 1: herbicidal efficacy on rice paddy weeds pre-emergence; format: in vivo, Scirpus juncoides; settings: 21 days
Protocol: (§3) A 75 cm^2 plastic pot was filled with soil (clay loam) and planted seeds of bulrush which is a rice paddy weed. After covering the top with 75 cm^3 soil mixed with seeds of false pimpernel, the pot was filled with water so that the soil submerged under 5 cm depth of water. The predetermined effective dosage ([…]) of a formulation containing the compound of the present invention prepared according to Formulation Example 1-4 as an active ingredient was diluted in water and added to the pot water surface dropwise. The pot was kept in a hot house for 21 days and the herbicidal efficacy was investigated. The herbicidal efficacy was evaluated according to the following standard by comparing with untreated control. “-” in the table represents test not done.
as §1

false pimpernel [3] = assay: Test Example 2: herbicidal efficacy on rice paddy weeds post-emergence; format: in vivo, Lindernia pyxidaria; settings: dosage 300 g/ha; post-emergence, one leaf stage; 21 days after treatment
Description: as §1, §2

bulrush [4] = assay: as above; format: in vivo, Scirpus juncoides; settings: 21 days after treatment
Description: as §1, §2

false pimpernel [5] = assay: Test Example 1: herbicidal efficacy on rice paddy weeds pre-emergence; format: in vivo, Lindernia pyxidaria; settings: dosage 300 g/ha, 21 days
Protocol: as §3, §1

[6] = dosage 300 g/ha, post-emergence, one leaf stage
[7] = dosage 1000 g/ha, post-emergence, one leaf stage
[8] = dosage 1000 g/ha active ingredient, post-emergence treatment at one leaf stage, vs untreated control

SMILES	Burnyard grass post (herbicidal efficacy grade) (barnyard glass; [6])	Phytotoxicity to paddy rice ([1]; dosage 300 g/ha)	Bulrush pre (herbicidal efficacy grade) (bulrush [2]; dosage 300 g/ha)	False pimpernel post (herbicidal efficacy grade) (false pimpernel [3])	Bulrush post (herbicidal efficacy grade) (bulrush [4]; [6])	False pimpernel pre (herbicidal efficacy grade) (false pimpernel [5])	Burnyard grass post (herbicidal efficacy grade) (barnyard glass; [7])	Phytotoxicity to paddy rice ([1]; dosage 1000 g/ha, treated 5 days after transplantation)	Bulrush pre (herbicidal efficacy grade) (bulrush [2]; dosage 1000 g/ha)	Bulrush post (herbicidal efficacy grade) (bulrush [4]; [7])	Burnyard grass post (herbicidal efficacy grade) (barnyard glass; [8])	Phytotoxicity to paddy rice (grade) ([1]; dosage 1000 g/ha active ingredient, treated 5 days after transplantation, vs untreated control)	Bulrush pre (herbicidal efficacy grade) (bulrush [2]; dosage 1000 g/ha active ingredient, vs untreated control)	Bulrush post (herbicidal efficacy grade) (bulrush [4]; [8])
CC(C)(C)OC(=O)NCC1CN(Cc2ccccc2NS(=O)(=O)C(F)(F)F)C(=O)O1 (racemic) [1-106]	0 (0% of herbicidal efficacy or phytotoxicity)	0 (0% of herbicidal efficacy or phytotoxicity)	4 (90%-100% of herbicidal efficacy or phytotoxicity)	2 (40%-69% of herbicidal efficacy or phytotoxicity)	4 (90%-100% of herbicidal efficacy or phytotoxicity)	2 (40%-69% of herbicidal efficacy or phytotoxicity)								
O=C1OC(COc2ccccc2)CN1Cc1ccccc1NS(=O)(=O)C(F)(F)F (racemic) [Compound 1-51]	0 (0% of herbicidal efficacy or phytotoxicity)	0 (0% of herbicidal efficacy or phytotoxicity)	3 (70%-89% of herbicidal efficacy or phytotoxicity)	3 (70%-89% of herbicidal efficacy or phytotoxicity)	4 (90%-100% of herbicidal efficacy or phytotoxicity)	4 (90%-100% of herbicidal efficacy or phytotoxicity)								
CC(C)COC(=O)N(c1ccccc1CN1CC(COc2ccccc2)OC1=O)S(=O)(=O)C(F)(F)F (racemic) [Compound 1-52]	3 (70%-89% of herbicidal efficacy or phytotoxicity)	0 (0% of herbicidal efficacy or phytotoxicity)	4 (90%-100% of herbicidal efficacy or phytotoxicity)	4 (90%-100% of herbicidal efficacy or phytotoxicity)	4 (90%-100% of herbicidal efficacy or phytotoxicity)	4 (90%-100% of herbicidal efficacy or phytotoxicity)								
CC1(C)OC(=O)N(Cc2cc(Cl)ccc2NS(=O)(=O)C(F)(F)F)C1=O [1-211]							4 (90%-100% of herbicidal efficacy or phytotoxicity)	4 (90%-100% of herbicidal efficacy or phytotoxicity)	4 (90%-100% of herbicidal efficacy or phytotoxicity)	4 (90%-100% of herbicidal efficacy or phytotoxicity)				
CC1(C)CN(Cc2cccc(O)c2NS(=O)(=O)C(F)(F)F)C(=O)O1 [1-214]											0 (0% of herbicidal efficacy or phytotoxicity)	0 (0% of herbicidal efficacy or phytotoxicity)	1 (1%-39% of herbicidal efficacy or phytotoxicity)	1 (1%-39% of herbicidal efficacy or phytotoxicity)
CCc1cn(Cc2ccccc2NS(=O)(=O)C(F)(F)F)c(=O)o1 [Compound 1-209]		1 (1%-39% of herbicidal efficacy or phytotoxicity)	3 (70%-89% of herbicidal efficacy or phytotoxicity)	2 (40%-69% of herbicidal efficacy or phytotoxicity)	3 (70%-89% of herbicidal efficacy or phytotoxicity)	4 (90%-100% of herbicidal efficacy or phytotoxicity)								
CCc1cn(Cc2ccccc2N(C(=O)OCC(C)C)S(=O)(=O)C(F)(F)F)c(=O)o1 [Compound 1-210]		0 (0% of herbicidal efficacy or phytotoxicity)	3 (70%-89% of herbicidal efficacy or phytotoxicity)	0 (0% of herbicidal efficacy or phytotoxicity)	4 (90%-100% of herbicidal efficacy or phytotoxicity)	4 (90%-100% of herbicidal efficacy or phytotoxicity)								
